Source: patent US20250177425A1, “SAIKOSAPONIN C AS COMPOSITION FOR TREATING OR PREVENTING AGE-RELATED VASCULAR DISEASES INCLUDING ARTERIOSCLEROSIS” (AGINGTARGET, INC., priority 2022, published 2025)

Columns and labels:
Assay type in all cases: cell-based, human
[1] = system: HUVEC; experiment: Mechanism study: SA-β-gal staining with NOS and Sirt1 inhibitors; settings: 20 μM pretreatment 2 hours, 33 mM high glucose 72 hours
Method: Similar to Experimental Example 1, a high-fat diet evaluation system at the cellular level was established. Specifically, […], which are vascular endothelial cells, were pretreated with Saikosaponin C at a concentration of 20 μM for 2 hours, and then treated with high glucose at a concentration of 33 mM for 72 hours (for SA-β-gal staining) or 36 hours (for the analysis of enzyme activity of NOS and Sirt1). Then, SA-β-gal staining, NOS enzyme activity, and Sirt1 enzyme activity were analyzed. To analyze whether or not NOS and Sirt1 protein are involved in the anti-vascular aging effect of Saikosaponin C and the relationship between NOS and Sirt1 protein, L-NG-nitro arginine methyl ester (L-NAME) (5 mM), an inhibitor of NOS, and EX-527 (10 μM), an inhibitor of Sirt1 protein, were used. […] The senescence of vascular endothelial cells was assessed through intracellular SA-β-gal staining (FIG. 8A). The activities of NOS (FIG. 8B) and Sirt1 protein (FIG. 8C) were measured using the NOS Activity Assay Kit and the Sirt1 Activity Assay Kit, respectively.

[2] = system: HUVEC; experiment: SA-β-gal staining, high glucose-induced senescence; settings: 5 μM and 20 μM pretreatment 2 hours, 33 mM high glucose 72 hours, dose-dependent
Method: (§1) Similar to Experimental Example 1, a high-fat diet evaluation system at the cellular level was established.
(§2) Specifically, two types of vascular endothelial cells, namely, HUVEC and HPAEC cells, were pretreated with Saikosaponin C at concentrations of 5 μM and 20 μM for 2 hours, and then treated with high glucose at a concentration of 33 mM for 72 hours (for SA-β-gal staining) or 48 hours (for vascular senescence marker protein analysis). Then, the degree of cellular senescence was measured through SA-β-gal staining and measured as the ratio of the total cells to cells stained in blue (SA-β-gal positive). In addition, the expression of vascular senescence marker proteins such as PAI-1, ICAM-1, and VCAM-1 was analyzed.
(§3) Specifically, the senescence of vascular endothelial cells was evaluated by SA-β-gal staining to measure the activity of β-galactosidase, which is an enzyme present in the lysosome, an organelle within the cell (FIG. 3C and FIG. 3D) and this was represented as a graph (FIG. 3A and FIG. 3B). In addition, FIGS. 3E and 3F show the results of Western blotting to determine the expression of vascular senescence marker proteins such as PAI-1, ICAM-1, and VCAM-1 in two types of vascular endothelial cells (HUVEC, HPAEC).

[3] = system: HPAEC; experiment: SA-β-gal staining, high glucose-induced senescence; settings: 5 μM and 20 μM pretreatment 2 hours, 33 mM high glucose 72 hours, dose-dependent
Method: as §1, §2, §3

[4] = system: HUVEC; experiment: Trypan blue staining, viable cell count under high glucose; settings: 5 μM and 20 μM pretreatment 2 hours, 33 mM high glucose 1 week, dose-dependent
Method: (§4) Similar to Experimental Example 1, a high-fat diet evaluation system at the cell level was established.
(§5) Specifically, two types of vascular endothelial cells, namely, HUVEC and HPAEC cells, were pretreated with Saikosaponin C at concentrations of 5 μM and 20 μM for 2 hours, and then treated with high glucose at a concentration of 33 mM for 1 week. The number of viable cells was then analyzed by Trypan blue staining. The number of viable cells was based on the number of cells in the control group (none) set to “100”.

[5] = system: HPAEC; experiment: as above; settings: 5 μM and 20 μM pretreatment 2 hours, 33 mM high glucose 1 week, dose-dependent
Method: as §4, §5

CC1O[C@@H](O[C@@H]2C(CO[C@@H]3OC(CO)[C@@H](O)C(O)C3O)O[C@@H](O[C@H]3CC[C@]4(C)[C@H]5C=C[C@]67OC[C@@]8(CCC(C)(C)C[C@H]86)[C@@H](O)C[C@@]7(C)[C@]5(C)CC[C@H]4C3(C)C)C(O)C2O)C(O)C(O)[C@H]1O (some centres unmarked) [Saikosaponin C]
high glucose-induced SA-β-gal positive HUVEC cells [1]: reduced | high glucose-induced SA-β-gal positive cells [2]: significantly reduced | high glucose-induced SA-β-gal positive cells [3]: significantly reduced | high glucose-induced cell growth inhibition (number of viable cells, Trypan blue) [4]: significantly alleviated | high glucose-induced cell growth inhibition (number of viable cells, Trypan blue) [5]: significantly alleviated
